Measured values: the supplement of paper PMC10627819

Legend:
Details in all cases: main component drawn
S. pneumoniae D39V [1] = assay: Bliss interaction score (quartile over a dose matrix) (fitness difference); higher = more antagonism (negative = synergy)
Summary of the method: (§1)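 Combination data were used to infer fitness under each single drug. Fitness is the OD595 at entry into stationary phase divided by the robust mean of the plate's no-drug wells, with a cap of 1. The Bliss score is the observed minus the expected product fitness, summarised by quartiles over technical, biological and donor/recipient replicates.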

S. aureus Newman [2] = assay: as above
Summary of the method: as §1

B. subtilis 168 [3] = assay: as above
Summary of the method: as §1

S. aureus DSM 20231 = assay: as above
Summary of the method: as §1

S. pneumoniae D39V [4] = assay: fitness (endpoint OD595 vs no drug) (fraction); higher = more growth
Summary of the method: (§2)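 Cultures at OD595 0.01 were dispensed into 384-well plates in TSB, LB Lennox or CY and incubated at 37 °C. Every 30 min for 14 h, OD595 was read and corrected by the first reading. Fitness is the optical density at entry into stationary phase relative to the robust mean of no-drug control wells, capped at 1.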

S. aureus Newman [5] = assay: as above
Summary of the method: as §2

B. subtilis 168 [6] = assay: as above
Summary of the method: as §2
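Wherever Bliss interaction score (quartile over a dose matrix) is given: first quartile when negative (synergy) and third quartile when positive (antagonism).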

CNC(C)C1CCC(N)C(OC2C(N)CC(N)C(OC3OCC(C)(O)C(NC)C3O)C2O)O1 (stereo unspecified) [Gentamicin] + CN(C)c1cc(NC(=O)CNC(C)(C)C)c(O)c2c1C[C@H]1C[C@H]3[C@H](N(C)C)C(O)=C(C(N)=O)C(=O)[C@@]3(O)C(O)=C1C2=O [Tigecycline]
Details	Bliss interaction score
B. subtilis 168 [3]	0.122
S. aureus DSM 20231	-0.0407
S. aureus Newman [2]	-0.0289
S. pneumoniae D39V [1]	0.0631

Details	fitness
B. subtilis 168 [6], first compound 0.0625 µg/mL, partner 0.039 µg/mL	0.967
B. subtilis 168 [6], first compound 0.0625 µg/mL, partner 0.078 µg/mL	0.908
B. subtilis 168 [6], first compound 0.0625 µg/mL, partner 0.156 µg/mL	0.907
B. subtilis 168 [6], first compound 0.25 µg/mL, partner 0.039 µg/mL	0.186
B. subtilis 168 [6], first compound 0.25 µg/mL, partner 0.078 µg/mL	0.0549
B. subtilis 168 [6], first compound 0.25 µg/mL, partner 0.156 µg/mL	0.0589
S. aureus Newman [5], first compound 0.5 µg/mL, partner 0.039 µg/mL	0.974
S. aureus Newman [5], first compound 0.5 µg/mL, partner 0.078 µg/mL	0.949
S. aureus Newman [5], first compound 0.5 µg/mL, partner 0.156 µg/mL	0.935
S. aureus Newman [5], first compound 1 µg/mL, partner 0.039 µg/mL	0.988
S. aureus Newman [5], first compound 1 µg/mL, partner 0.078 µg/mL	≥ 1
S. aureus Newman [5], first compound 1 µg/mL, partner 0.156 µg/mL	≥ 1
S. aureus Newman [5], first compound 2 µg/mL, partner 0.039 µg/mL	≥ 1
S. aureus Newman [5], first compound 2 µg/mL, partner 0.078 µg/mL	≥ 1
S. aureus Newman [5], first compound 2 µg/mL, partner 0.156 µg/mL	≥ 1
S. pneumoniae D39V [4], first compound 2 µg/mL, partner 0.325 µg/mL	0.94
S. pneumoniae D39V [4], first compound 2 µg/mL, partner 0.65 µg/mL	0.9
S. pneumoniae D39V [4], first compound 2 µg/mL, partner 1.3 µg/mL	0.909
S. pneumoniae D39V [4], first compound 2 µg/mL, partner 2.6 µg/mL	0.897
S. pneumoniae D39V [4], first compound 4 µg/mL, partner 0.325 µg/mL	0.943
S. pneumoniae D39V [4], first compound 4 µg/mL, partner 0.65 µg/mL	0.945
S. pneumoniae D39V [4], first compound 4 µg/mL, partner 1.3 µg/mL	0.96
S. pneumoniae D39V [4], first compound 4 µg/mL, partner 2.6 µg/mL	0.903
S. pneumoniae D39V [4], first compound 8 µg/mL, partner 0.325 µg/mL	0.971
S. pneumoniae D39V [4], first compound 8 µg/mL, partner 0.65 µg/mL	0.911
S. pneumoniae D39V [4], first compound 8 µg/mL, partner 1.3 µg/mL	0.977
S. pneumoniae D39V [4], first compound 8 µg/mL, partner 2.6 µg/mL	0.858

fitness, one replicate
Details	first compound 0.0625 µg/mL	first compound 0.125 µg/mL	first compound 0.25 µg/mL	first compound 0.375 µg/mL	first compound 0.75 µg/mL	first compound 1.5 µg/mL
B. subtilis 168 [6], partner 0.125 µg/mL	≥ 1	≥ 1	0.0664	–	–	–
B. subtilis 168 [6], partner 0.25 µg/mL	0.91	0.891	0.315	–	–	–
B. subtilis 168 [6], partner 0.5 µg/mL	0.965	0.879	0.21	–	–	–
S. aureus Newman [5], partner 0.039 µg/mL	–	–	–	0.935	0.933	0.953
S. aureus Newman [5], partner 0.078 µg/mL	–	–	–	0.97	≥ 1	0.966
S. aureus Newman [5], partner 0.156 µg/mL	–	–	–	≥ 1	0.969	0.964

CNC(C)C1CCC(N)C(OC2C(N)CC(N)C(OC3OCC(C)(O)C(NC)C3O)C2O)O1 (stereo unspecified) [Gentamicin] + CN(N=O)C(=O)N[C@@H](C=O)[C@@H](O)[C@H](O)[C@H](O)CO [Streptozotocin]
Details	Bliss interaction score
B. subtilis 168 [3]	-0.125
S. aureus DSM 20231	-0.0423
S. aureus Newman [2]	0.0523
S. pneumoniae D39V [1]	0.0654

fitness
Details	partner 0.15 µg/mL	partner 0.3 µg/mL	partner 0.6 µg/mL	partner 1.2 µg/mL	partner 2.4 µg/mL	partner 4.8 µg/mL
B. subtilis 168 [6], first compound 0.0625 µg/mL	0.949	0.952	0.956	–	–	–
B. subtilis 168 [6], first compound 0.25 µg/mL	0.161	0.164	0.12	–	–	–
S. aureus Newman [5], first compound 0.5 µg/mL	0.871	0.801	0.708	–	–	–
S. aureus Newman [5], first compound 1 µg/mL	0.888	0.844	0.724	–	–	–
S. aureus Newman [5], first compound 2 µg/mL	0.898	0.856	0.732	–	–	–
S. pneumoniae D39V [4], first compound 2 µg/mL	–	–	–	0.892	0.949	0.914
S. pneumoniae D39V [4], first compound 4 µg/mL	–	–	–	0.93	0.966	0.949
S. pneumoniae D39V [4], first compound 8 µg/mL	–	–	–	0.942	0.967	0.878

fitness, S. aureus Newman [5], one replicate
Details	first compound 0.375 µg/mL	first compound 0.75 µg/mL	first compound 1.5 µg/mL
partner 0.15 µg/mL	0.851	0.848	0.777
partner 0.3 µg/mL	0.717	0.687	0.706
partner 0.6 µg/mL	0.534	0.585	0.561

CNC(C)C1CCC(N)C(OC2C(N)CC(N)C(OC3OCC(C)(O)C(NC)C3O)C2O)O1 (stereo unspecified) [Gentamicin] + CN[C@@H]1[C@H](O)[C@H](NC)[C@H]2O[C@@]3(O)C(=O)C[C@@H](C)O[C@H]3O[C@@H]2[C@H]1O [Spectinomycin]
Details	Bliss interaction score
B. subtilis 168 [3]	0.0812
S. aureus DSM 20231	0.044
S. aureus Newman [2]	0.0532
S. pneumoniae D39V [1]	0.0871

fitness
Details	partner 2 µg/mL	partner 4 µg/mL	partner 8 µg/mL	partner 16 µg/mL
B. subtilis 168 [6], first compound 0.0625 µg/mL	0.951	0.988	0.814	–
B. subtilis 168 [6], first compound 0.25 µg/mL	0.325	0.148	–	–
S. aureus Newman [5], first compound 0.375 µg/mL	–	0.915	0.984	0.961
S. aureus Newman [5], first compound 0.5 µg/mL	–	0.931	0.966	0.891
S. aureus Newman [5], first compound 0.75 µg/mL	–	0.928	≥ 1	0.95
S. aureus Newman [5], first compound 1 µg/mL	–	0.993	0.991	0.933
S. aureus Newman [5], first compound 1.5 µg/mL	–	0.923	≥ 1	0.96
S. aureus Newman [5], first compound 2 µg/mL	–	≥ 1	≥ 1	–
S. pneumoniae D39V [4], first compound 2 µg/mL	–	0.964	0.901	0.663
S. pneumoniae D39V [4], first compound 4 µg/mL	–	0.914	0.807	0.643
S. pneumoniae D39V [4], first compound 8 µg/mL	–	0.957	0.879	0.645

fitness, S. aureus Newman [5], one replicate
Details	first compound 1 µg/mL	first compound 2 µg/mL	first compound 4 µg/mL
partner 16 µg/mL	–	–	0.0712
partner 32 µg/mL	0.507	0.101	0.0361
partner 64 µg/mL	0.0654	0.0856	0.0746

CNC(C)C1CCC(N)C(OC2C(N)CC(N)C(OC3OCC(C)(O)C(NC)C3O)C2O)O1 (stereo unspecified) [Gentamicin] + CN[C@@H]1[C@H](O[C@H]2[C@H](O[C@H]3[C@H](O)[C@@H](O)[C@H](N=C(N)N)[C@@H](O)[C@@H]3N=C(N)N)O[C@@H](C)[C@]2(O)C=O)O[C@@H](CO)[C@H](O)[C@H]1O [Streptomycin]
Details	Bliss interaction score
B. subtilis 168 [3]	-0.17
S. aureus DSM 20231	-0.404
S. aureus Newman [2]	0.0694
S. pneumoniae D39V [1]	0.0468

fitness
Details	partner 1 µg/mL	partner 2 µg/mL	partner 4 µg/mL	partner 8 µg/mL
B. subtilis 168 [6], first compound 0.125 µg/mL	–	–	–	0.0351
B. subtilis 168 [6], first compound 0.25 µg/mL	–	0.0785	0.05	0.0399
S. aureus Newman [5], first compound 0.375 µg/mL	≥ 1	0.929	–	–
S. aureus Newman [5], first compound 0.5 µg/mL	0.957	0.953	0.978	–
S. aureus Newman [5], first compound 0.75 µg/mL	0.99	0.848	–	–
S. aureus Newman [5], first compound 1 µg/mL	0.991	≥ 1	≥ 1	–
S. aureus Newman [5], first compound 2 µg/mL	0.996	≥ 1	0.946	–
S. pneumoniae D39V [4], first compound 2 µg/mL	–	0.918	0.922	0.899
S. pneumoniae D39V [4], first compound 4 µg/mL	–	0.895	0.942	0.848
S. pneumoniae D39V [4], first compound 8 µg/mL	–	0.912	0.912	0.836

S. pneumoniae D39V [4], partner 16 µg/mL, one replicate
Details	fitness
first compound 2 µg/mL	0.779
first compound 4 µg/mL	0.736
first compound 8 µg/mL	0.628
